Data on 15 compounds can be found in ChEMBL document CHEMBL5230136, “A review: Biologically active 3,4-heterocycle-fused coumarins” (Eur J Med Chem, 2021).

Experiment [1] deals with MCF7. Kind of experiment: Antiproliferative activity against human MCF7 cells assessed as inhibition of cell proliferation measured after 96 hrs by SRB assay. In kind it is functional, cell-based. To be noted: MCF7, 96 h. In general terms: Sulforhodamine B stains cellular protein and so reports cell mass.
Experiment [2] concerns LS180. Kind of experiment: Anticancer activity against human LS180 assessed as inhibition in cell viability. The experiment is classed as functional, cell-based.
The species entered for another experiment is Rattus norvegicus. Kind of experiment: Antifibrotic activity in Sprague-Dawley rat model of BDL induced hepatic fibrosis assessed as […] fibrotic potential. In kind it is functional.
A further experiment has as its system Ehrlich. Nature of the experiment: cells. To be noted: Mus musculus.
The subject of experiment [3] is Staphylococcus aureus. Nature of the experiment: Antibacterial activity against Staphylococcus aureus assessed as zone of inhibition at 20 mg/ml. In kind it is functional. The settings on record: read-out: IZ.
The test system of experiment [4] is Staphylococcus aureus. Kind of experiment: Antibacterial activity against Staphylococcus aureus by dilution assay. In kind it is functional.
The next experiment deals with Staphylococcus simulans. Nature of the experiment: Antibacterial activity against Staphylococcus simulans assessed as zone of inhibition at 20 mg/ml. The experiment is classed as functional. The settings on record: read-out: IZ.
The subject of another experiment is Candida albicans. Nature of the experiment: […] activity against Candida albicans assessed as zone of inhibition at 20 mg/ml. The settings on record: read-out: IZ. The experiment is classed as functional.
For experiment [5], the target named is Dopamine receptors; D2 & D4 (Homo sapiens, UniProt P14416+P21917). Kind of experiment: Binding affinity to human D2/D4 receptor assessed as inhibition constant. In kind it is protein assay.
For the next experiment, the target named is D(4) dopamine receptor (Homo sapiens, UniProt P21917). Nature of the experiment: Binding affinity to D4 receptor (unknown origin) assessed as inhibition constant.
Sequence of D(4) dopamine receptor (P21917 whole entry): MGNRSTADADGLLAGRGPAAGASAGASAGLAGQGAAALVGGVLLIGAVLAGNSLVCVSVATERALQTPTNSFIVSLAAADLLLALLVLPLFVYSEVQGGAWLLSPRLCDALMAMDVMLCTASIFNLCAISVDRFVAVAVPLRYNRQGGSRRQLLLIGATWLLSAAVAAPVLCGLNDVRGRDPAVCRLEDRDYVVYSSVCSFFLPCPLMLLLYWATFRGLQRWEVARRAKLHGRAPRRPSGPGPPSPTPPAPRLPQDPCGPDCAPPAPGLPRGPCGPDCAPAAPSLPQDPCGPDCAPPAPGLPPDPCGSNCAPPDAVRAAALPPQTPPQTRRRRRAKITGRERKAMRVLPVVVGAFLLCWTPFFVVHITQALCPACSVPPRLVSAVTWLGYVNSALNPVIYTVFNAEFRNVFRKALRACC
Experiment [6] relates to Staphylococcus aureus. Nature of the experiment: Antibacterial activity against Staphylococcus aureus ATCC 29213 assessed as reduction in bacterial growth. The experiment is classed as functional.
In the next experiment the test system is Bacillus subtilis. Nature of the experiment: Antibacterial activity against Bacillus subtilis assessed as reduction in bacterial growth. The experiment is classed as functional.
The subject of a further experiment is Escherichia coli. Nature of the experiment: Antibacterial activity against Escherichia coli assessed as bacterial growth inhibition. In kind it is functional.
Experiment [7] has as its system Staphylococcus epidermidis. Kind of experiment: Antibacterial activity against Staphylococcus epidermidis assessed as reduction in bacterial growth. In kind it is functional.
Experiment [8] relates to A549. Kind of experiment: Anticancer activity against human A549 cells assessed as inhibition of cell proliferation measured after 48 hrs by MTT assay. The experiment is classed as functional, cell-based. The settings on record: A549, 48 h. A general note: Formazan colour is commonly taken as a measure of viable cells.
Experiment [9] relates to MCF7. Nature of the experiment: Cytotoxicity activity against human MCF7 cells assessed as decreased cell viability. In kind it is functional, cell-based.
The subject of the next experiment is RAW264.7. Kind of experiment: Anti-inflammatory activity against mouse RAW264.7 cells assessed as inhibition of LPS-induced NO production at 50 ug/ml relative to control. The experiment is classed as functional. Details: scale not given: the % may be the effect or the level left. The settings on record: dose 50 µg/ml.
Another experiment relates to Mus musculus. Kind of experiment: Antiinflammatory activity in Swiss albino mouse model of carrageenan-induced paw edema assessed as reduction in paw edema. The experiment is classed as functional. Details: scale not given: the % may be the effect or the level left.
Experiment [10] deals with MCF7. Nature of the experiment: Cytotoxicity against human MCF7 cells […] by MTT reduction assay. In kind it is functional, cell-based.
Experiment [11] has as its system A549. Nature of the experiment: Anticancer activity against human A549 cells assessed as reduction in cell viability. The experiment is classed as functional, cell-based.
For another experiment, the system named is HeLa. Kind of experiment: cells. The settings on record: Homo sapiens.
The test system of a further experiment is K562. Nature of the experiment: cells. To be noted: Homo sapiens.
Experiment [12] has as its system LS180. Kind of experiment: cells. The settings on record: Homo sapiens.
Description: Cytotoxicity against human LS180 cells at 50 uM by MTT reduction assay
Experiment [13] concerns Staphylococcus aureus. Nature of the experiment: Antibacterial activity against Staphylococcus aureus assessed as zone of inhibition. The experiment is classed as functional.
The test system of experiment [14] is Bacillus cereus. Nature of the experiment: Antibacterial activity against Bacillus cereus assessed as zone of inhibition. The experiment is classed as functional.
The test system of the next experiment is Serratia marcescens. Kind of experiment: Antibacterial activity against Serratia marcescens assessed as zone of inhibition. In kind it is functional.
In a further experiment the test system is Proteus mirabilis. Nature of the experiment: Antibacterial activity against Proteus mirabilis assessed as zone of inhibition. The experiment is classed as functional.
Experiment [15] relates to Aspergillus ochraceus. Kind of experiment: Antifungal activity against Aspergillus ochraceus assessed as zone of inhibition. In kind it is functional.
The next experiment has as its system Penicillium chrysogenum. Nature of the experiment: Antifungal activity against Penicillium chrysogenum assessed as zone of inhibition. The experiment is classed as functional.
Experiment [16] deals with Aspergillus ochraceus. Kind of experiment: Antifungal activity against Aspergillus ochraceus assessed as zone of inhibition at 20 ug/ml. The experiment is classed as functional. The settings on record: read-out: IZ.
For experiment [17], the system named is Plasmodium falciparum. Kind of experiment: Antimalarial activity against Plasmodium falciparum by LDH assay. In kind it is functional, organism-based.
The subject of experiment [18] is Plasmodium falciparum. Nature of the experiment: Antimalarial activity against Plasmodium falciparum Dd2 by HRP2 assay. The experiment is classed as functional, organism-based.
Experiment [19] deals with Bacillus cereus. Kind of experiment: Antibacterial activity against Bacillus cereus assessed as reduction in microbial growth after 18 hrs by MTT based broth dilution method. The experiment is classed as functional, organism-based. For orientation: In broth dilution the organism is exposed to a series of concentrations in liquid medium.
A short description of experiment [20]: Antiproliferative activity against human U87 cells assessed as reduction in cell viability by MTT assay. In kind it is functional, cell-based, U-87MG ATCC. To be noted: U-87 MG.
The subject of experiment [21] is MCF7. Kind of experiment: Anticancer activity against human MCF7 cells assessed as reduction in cell viability. In kind it is functional, cell-based.
In the next experiment the test system is Raji. Nature of the experiment: Antiproliferative activity against human Raji cells assessed as reduction in cell growth incubated for 72 hrs by MTT assay. The experiment is classed as functional, cell-based.
Experiment [22] can be described thus: Antioxidant activity assessed as DPPH radical scavenging activity. The experiment is classed as functional.
The subject of another experiment is MES-SA. Nature of the experiment: Cytotoxicity against human MES-SA cells assessed as reduction in cell viability incubated for 72 hrs by MTT assay. The experiment is classed as functional, cell-based.
A short description of experiment [23]: Induction of angiogenesis in human HUVEC cells. In kind it is functional.

Converted amounts (≈) assume the structure as drawn. “And” between values parts separate entries of the source, which are not always exact repeats. Identical values can stand only once. Bounds are passed on as bounds.

Description for Ehrlich: Anticancer activity against mouse EAC cells assessed as reduction in cell viability
Description for HeLa: Cytotoxicity against human HeLa cells at 50 uM by MTT reduction assay
Description for K562: Cytotoxicity against human K562 cells at 50 uM by MTT reduction assay

For `O=C1CCCC(=O)C1`, the IC50 in the experiment with MCF7 [1] was 100 µM; with LS180 [2], greater than 100 µM.

Turning to `CCc1ccccc1-n1c(N)c(C#N)c2c(c(=O)oc3ccc4ccccc4c32)c1=O`, the Activity in the experiment filed under Rattus norvegicus amounted to 193.07 µmol/L. Also, in the experiment on Ehrlich, half-maximal inhibition (IC50) required 246 µM.

With `Cc1cccc2c1oc(=O)c1cn[nH]c12`, the zone of inhibition at 20000 µg/mL with Staphylococcus aureus [3], with Staphylococcus simulans and in the experiment on Candida albicans was 14 mm in each case. The compound further registered an MIC against Staphylococcus aureus [4] of 100 µM (≈ 20 µg/mL).

Consider `COc1ccc2c3c(c(=O)oc2c1)CN(Cc1ccncc1)CC3`, for which the figures for the Ki (in [5]; at D(4) dopamine receptor) were 0.078 µM and 0.0015 µM, respectively.

As to `CC1=Nc2[nH]n(-c3ccccc3)c(=O)c2C2c3cc(Cl)cc(Cl)c3OC(=O)C12` (centres undefined), the MIC in the experiment with Staphylococcus aureus [6] was 25 µM (≈ 10.4 µg/mL); in the experiment on Bacillus subtilis, 6.3 µM (≈ 2.61 µg/mL); in the experiment with Escherichia coli, 6.3 µM (≈ 2.61 µg/mL); in [7], 6.3 µM (≈ 2.61 µg/mL).

Regarding `Cc1ccc2c(c1)C(c1ccccc1)c1c(c3ccccc3oc1=O)N2` (centres undefined), the IC50 in the experiment on A549 [8] stood at 0.05 µM.

In the case of `Cc1ccc2nc3c(c(-c4ccccc4)c2c1)c(=O)oc1ccccc13`, the IC50 with MCF7 [9] was found to be 0.05 µM.

For the compound `CCOc1nc(-c2ccco2)cc2c1c(=O)oc1ccccc12`, the Activity in the experiment with RAW264.7 is 62%; in the experiment with Mus musculus it was 89%.

For the compound `O=C1CCCc2nc3c(c(-c4ccccc4[N+](=O)[O-])c21)c(=O)oc1ccccc13`, the IC50 is 58.6 µM in the experiment with MCF7 [10]; 0.14 µM in the experiment with A549 [11]; 29.8 µM in the experiment on HeLa; 25.4 µM with K562; greater than 100 µM in the experiment on LS180 [12].

With `O=C1CN=C2C3=C(N=CN2N1)Oc1c(c(=O)oc2ccccc12)C3`, the “inhibition zone (IZ)” value in the experiment with Staphylococcus aureus [13] is 20 mm; in the experiment on Bacillus cereus [14], 22 mm; with Serratia marcescens it was 21 mm; in the experiment with Proteus mirabilis it was 22 mm; with Aspergillus ochraceus [15] it was 20 mm; in the experiment with Penicillium chrysogenum it was 19 mm and 22 mm. For the same compound, the zone of inhibition at 20 µg/mL in the experiment with Aspergillus ochraceus [16] was found to be 22 mm.

Consider `CCN(CC)CCCC(C)Nc1cc2c(c(C)n1)c(=O)oc1ccccc12` (centres undefined), for which the IC50 in the experiment with Plasmodium falciparum [17] and in the experiment on Plasmodium falciparum [18] was 1.1 µM each time.

For `N#CC1=C(N)Oc2c(c(=O)oc3ccccc23)C12C(=O)N(CCCCCCCCCCBr)c1ccccc12` (centres undefined), the IC50 (in the experiment on Bacillus cereus [19]; in experiment [20]) was 39 µM each time.

As to `Cc1c(-c2nnn[nH]2)c(=O)oc2c1c(=O)oc1ccccc12`, the IC50 with MCF7 [21] was found to be 49 µM.

Regarding `COc1cccc(C2C3=C(CCCC3=O)Oc3c2c(=O)oc2ccccc32)c1` (centres undefined), the IC50 with Raji was 73 µM.

As to `CN1CCN(Cc2[se]c3c(c2Br)c(=O)oc2ccccc23)CC1`, the IC50 turned out to be 62 µM in [22] and 9.4 µM with MES-SA. For the same compound, in experiment [23], the Activity is given as 84%.

The IC50 is the concentration at which inhibition is half-maximal. For orientation: MIC means the lowest concentration that inhibits growth of the organism. For orientation: Ki means the equilibrium dissociation constant of an inhibitor or competing ligand from its target.
